Laboratory results from patent publication US9481676B2, “Azepino[4,5-B]indoles and methods of use” (Medivation Technologies, Inc., priority 2008, dated 2016).

What was measured:
[1] = biological target: T1, human recombinant histamine H2 receptor (Homo sapiens, UniProt P25021); experiment: Histamine H2 radioligand binding ([125I]Aminopotentidine); settings: compound at 1 μM; read-out: Histamine Binding (1 μM) H2, percent inhibition of specific binding
T1 construct: expressed in transfected cells; host or cells: CHO-K1 cells
T1 sequence (P25021 whole entry): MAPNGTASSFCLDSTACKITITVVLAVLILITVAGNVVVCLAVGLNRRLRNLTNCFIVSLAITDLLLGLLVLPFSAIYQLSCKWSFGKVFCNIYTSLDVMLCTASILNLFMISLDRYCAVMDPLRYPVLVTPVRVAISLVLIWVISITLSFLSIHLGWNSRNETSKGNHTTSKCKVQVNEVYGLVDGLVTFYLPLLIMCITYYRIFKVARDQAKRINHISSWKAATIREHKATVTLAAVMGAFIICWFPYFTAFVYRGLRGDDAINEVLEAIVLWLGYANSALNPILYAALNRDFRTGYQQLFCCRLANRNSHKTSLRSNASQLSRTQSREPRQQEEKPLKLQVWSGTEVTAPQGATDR
Procedure, shortened: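 Membranes from CHO-K1 cells expressing recombinant human H2 receptor, in 50 mM phosphate buffer pH 7.4, incubated with 0.1 nM [125I]aminopotentidine for 120 min at 25 °C; nonspecific binding defined with 3 μM tiotidine.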

[2] = biological target: T2, human recombinant adrenergic α1D receptor (Homo sapiens, UniProt P25100); experiment: Adrenergic alpha1D radioligand binding ([3H]Prozosin); settings: compound at 1 μM; read-out: Adrenergic (1 μM) α1D, percent inhibition of specific binding
T2 construct: expressed in transfected cells; host or cells: HEK-293 cells
T2 sequence (P25100 1-572): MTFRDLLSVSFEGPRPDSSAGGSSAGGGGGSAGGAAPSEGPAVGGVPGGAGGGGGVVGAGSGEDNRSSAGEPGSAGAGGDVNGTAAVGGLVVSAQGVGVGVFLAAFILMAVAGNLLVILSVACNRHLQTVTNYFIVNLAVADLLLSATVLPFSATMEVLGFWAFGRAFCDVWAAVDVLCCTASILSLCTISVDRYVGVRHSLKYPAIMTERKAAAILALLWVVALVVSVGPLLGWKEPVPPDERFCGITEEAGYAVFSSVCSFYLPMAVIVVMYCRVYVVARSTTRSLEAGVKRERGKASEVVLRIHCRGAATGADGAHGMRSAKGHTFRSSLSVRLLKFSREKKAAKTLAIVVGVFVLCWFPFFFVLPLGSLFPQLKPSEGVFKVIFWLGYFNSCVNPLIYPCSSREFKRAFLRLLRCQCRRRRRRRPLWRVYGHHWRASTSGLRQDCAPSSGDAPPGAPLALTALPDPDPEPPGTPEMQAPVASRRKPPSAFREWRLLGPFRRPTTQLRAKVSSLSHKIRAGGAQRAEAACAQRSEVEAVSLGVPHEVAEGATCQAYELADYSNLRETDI
Experimental: To evaluate in radioligand binding assays the activity of compounds of the invention, human recombinant adrenergic α1D receptor expressed in human embryonic kidney (HEK-293) cells (Kenny, B. A. et al. Br. J. Pharmacol. 115(6):981, 1995) in a 50 mM Tris-HCl buffer, pH 7.4, was used. Compounds of invention were incubated with 0.6 nM [^3H]Prozosin for 60 min. at 25° C. Non-specific binding was estimated in the presence of 10 μM phentolamine. Receptor proteins were filtered and washed, the filters were then counted to determine [^3H]Prozosin specifically bound. Compounds were screened at 1 μM or lower, using 1% DMSO as vehicle. Biochemical assay results are presented as the percent inhibition of specific binding in Table 5.

[3] = biological target: T3, human recombinant adrenergic α2A receptor (Homo sapiens, UniProt P08913); experiment: Adrenergic alpha2A radioligand binding ([3H]MK-912); settings: compound at 1 μM; read-out: Adrenergic (1 μM) α2A, percent inhibition of specific binding
T3 construct: expressed in transfected cells; host or cells: insect Sf9 cells
T3 sequence (P08913 1-465): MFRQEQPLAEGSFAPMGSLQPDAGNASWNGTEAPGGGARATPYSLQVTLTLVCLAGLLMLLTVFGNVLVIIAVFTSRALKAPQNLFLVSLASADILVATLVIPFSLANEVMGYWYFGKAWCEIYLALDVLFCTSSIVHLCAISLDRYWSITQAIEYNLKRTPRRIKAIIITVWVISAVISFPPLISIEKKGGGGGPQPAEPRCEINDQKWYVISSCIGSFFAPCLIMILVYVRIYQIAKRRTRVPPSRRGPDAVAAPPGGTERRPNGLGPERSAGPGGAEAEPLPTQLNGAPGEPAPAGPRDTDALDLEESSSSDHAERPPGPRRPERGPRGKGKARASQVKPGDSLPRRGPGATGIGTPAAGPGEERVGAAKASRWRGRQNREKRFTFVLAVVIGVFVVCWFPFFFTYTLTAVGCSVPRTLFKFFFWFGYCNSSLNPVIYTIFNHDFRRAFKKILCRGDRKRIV
Experimental: To evaluate in radioligand binding assays the activity of compounds of the invention, human recombinant adrenergic α2A receptor expressed in insect Sf9 cells (Uhlen S et al. J Pharmacol Exp Ther. 271:1558, 1994) in a modified Tris-HCl buffer (50 mM Tris-HCl, pH 7.4, 12.5 mM MgCl2, 2 mM EDTA) was used. Compounds of invention were incubated with 1 nM [^3H]MK-912 for 60 min. at 25° C. MK912 is (2S-trans)-1,3,4,5′,6,6′,7,12b-octahydro-1′,3′-dimethyl-spiro[2 h-benzofuro [2,3-a]quinolizine-2,4′ (1′H)-pyrimidin]-2′ (3′H)-one hydrochloride Non-specific binding was estimated in the presence of 10 μM WB-4101 (2-(2,6-Dimethoxyphenoxyethyl)aminomethyl-1,4-benzodioxane hydrochloride). Receptor proteins were filtered and washed, the filters were then counted to determine [^3H]MK-912 specifically bound. Compounds were screened at 1 μM or lower, using 1% DMSO as vehicle. Biochemical assay results are presented as the percent inhibition of specific binding in Table 5.

[4] = biological target: T4, human recombinant dopamine D2L receptor (Homo sapiens, UniProt P14416); experiment: Dopamine D2L radioligand binding ([3H]Spiperone); settings: compound at 1 μM; read-out: Dopamine (1 μM) D2L, percent inhibition of specific binding
T4 construct: expressed in transfected cells; host or cells: CHO cells
T4 sequence (P14416 whole entry): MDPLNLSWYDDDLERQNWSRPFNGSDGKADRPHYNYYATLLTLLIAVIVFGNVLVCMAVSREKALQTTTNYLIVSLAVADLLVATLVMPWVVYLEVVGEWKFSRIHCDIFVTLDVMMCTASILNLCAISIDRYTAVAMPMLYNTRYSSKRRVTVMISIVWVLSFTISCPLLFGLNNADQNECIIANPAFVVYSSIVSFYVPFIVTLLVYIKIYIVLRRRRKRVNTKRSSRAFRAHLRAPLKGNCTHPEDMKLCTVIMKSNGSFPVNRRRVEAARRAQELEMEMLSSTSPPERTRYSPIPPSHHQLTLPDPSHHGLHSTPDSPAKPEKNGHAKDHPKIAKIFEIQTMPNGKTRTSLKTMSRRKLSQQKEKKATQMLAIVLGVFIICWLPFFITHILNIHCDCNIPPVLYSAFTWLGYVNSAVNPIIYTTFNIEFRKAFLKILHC
Procedure, shortened: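 Human recombinant D2L receptor from CHO cells, in Tris-HCl buffer pH 7.4 with ascorbic acid, BSA and 150 mM NaCl; compounds at 1 μM or lower (1% DMSO) incubated with 0.16 nM [3H]spiperone, 120 min, 25° C. Nonspecific binding by 10 μM haloperidol; filter counting; % inhibition of specific binding.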

**Q.** Which results are given for CN1CCc2c(n(CC(C)(O)c3ccc(Cl)cc3)c3ccc(Cl)cc23)CC1 (centres unmarked) [Compound No. 12, 1-(9-chloro-2,3,4,5-tetrahydro-3-methylazepino[4,5-b]indol-6(1H)-yl)-2-(4-chlorophenyl)propan-2-ol]?
**A.** inhibition at 1 µM [1]: 98%; inhibition at 1 µM [2]: 68%; inhibition at 1 µM [3]: 101%; inhibition at 1 µM [4]: 45%

**Q.** What does the source list for Cc1ccc2c(c1)c1c(n2CC(C)(O)c2ccc(Cl)cc2)CCN(C)CC1 (centres unmarked) [Compound No. 15, 2-(4-chlorophenyl)-1-(2,3,4,5-tetrahydro-3,9-dimethylazepino[4,5-b]indol-6(1H)-yl)propan-2-ol]?
**A.** inhibition at 1 µM [1]: 92%; inhibition at 1 µM [2]: 72%; inhibition at 1 µM [3]: 93%; inhibition at 1 µM [4]: 45%

**Q.** Which inhibition at 1 µM [1] does the source give for Cc1ccc2c(c1)c1c(n2CCc2ccccc2Cl)CCN(C)CC1 [Compound No. 69, 6-(2-chlorophenethyl)-1,2,3,4,5,6-hexahydro-3,9-dimethylazepino[4,5-b]indole] here?
**A.** The inhibition at 1 µM was -9%.

**Q.** What about the inhibition at 1 µM [2] of the same compound?
**A.** Its inhibition at 1 µM is -5%.

**Q.** And the inhibition at 1 µM [3]?
**A.** The inhibition at 1 µM was 8%.

**Q.** What about the inhibition at 1 µM [4] of the same compound?
**A.** The inhibition at 1 µM was -2%.

**Q.** Which inhibition at 1 µM [1] does the source give for Cc1ccc2c(c1)c1c(n2CC(=O)N2CCCC2)CCN(C)CC1 [Compound No. 45, 2-(2,3,4,5-tetrahydro-3,9-dimethylazepino[4,5-b]indol-6(1H)-yl)-1-(pyrrolidin-1-yl)ethanone] here?
**A.** The inhibition at 1 µM was 7%.

**Q.** And the inhibition at 1 µM [2]?
**A.** Its inhibition at 1 µM is 1%.

**Q.** What about the inhibition at 1 µM [3] of the same compound?
**A.** The inhibition at 1 µM was -9%.

**Q.** And the inhibition at 1 µM [4]?
**A.** Its inhibition at 1 µM is -6%.

**Q.** What does the source list for Cc1ccc2c(c1)c1c(n2CC(O)c2ccc(F)cc2)CCN(C)CC1 (centres unmarked) [Compound No. 52, 1-(4-fluorophenyl)-2-(2,3,4,5-tetrahydro-3,9-dimethylazepino[4,5-b]indol-6(1H)-yl)ethanol]?
**A.** inhibition at 1 µM [1]: 61%; inhibition at 1 µM [2]: 91%; inhibition at 1 µM [3]: 97%; inhibition at 1 µM [4]: 20%

**Q.** With COc1ccc(C(O)Cn2c3c(c4cc(C)ccc42)CCN(C)CC3)cc1 (centres unmarked) [Compound No. 48, 2-(2,3,4,5-tetrahydro-3,9-dimethylazepino[4,5-b]indol-6(1H)-yl)-1-(4-methoxyphenyl) ethanol] as the compound, how does the inhibition at 1 µM [1] read?
**A.** The inhibition at 1 µM was 56%.

**Q.** What about the inhibition at 1 µM [2] of the same compound?
**A.** The inhibition at 1 µM was 95%.

**Q.** And the inhibition at 1 µM [3]?
**A.** The inhibition at 1 µM was 98%.

**Q.** What about the inhibition at 1 µM [4] of the same compound?
**A.** The inhibition at 1 µM was 31%.

**Q.** For CN1CCc2c(n(CCc3ccc(C(=O)O)nc3)c3ccc(Cl)cc23)CC1 [Compound No. 21, 5-(2-(9-chloro-2,3,4,5-tetrahydro-3-methylazepino[4,5-b]indol-6(1H)-yl)ethyl)pyridine-2-carboxylic acid], which inhibition at 1 µM [1] is on record?
**A.** The inhibition at 1 µM was 13%.

**Q.** And the inhibition at 1 µM [2]?
**A.** Its inhibition at 1 µM is 17%.

**Q.** And the inhibition at 1 µM [3]?
**A.** The inhibition at 1 µM was -7%.

**Q.** And the inhibition at 1 µM [4]?
**A.** The inhibition at 1 µM was 6%.

**Q.** CN1CCc2c(n(CC(O)c3cccnc3)c3ccc(Cl)cc23)CC1 (centres unmarked) [Compound No. 18, 2-(9-chloro-2,3,4,5-tetrahydro-3-methylazepino[4,5-b]indol-6(1H)-yl)-1-(pyridin-3-yl)ethanol] was tested. Which inhibition at 1 µM [1] did it give?
**A.** The inhibition at 1 µM was 51%.

**Q.** What about the inhibition at 1 µM [2] of the same compound?
**A.** The inhibition at 1 µM was 58%.

**Q.** And the inhibition at 1 µM [3]?
**A.** The inhibition at 1 µM was 92%.

**Q.** And the inhibition at 1 µM [4]?
**A.** The inhibition at 1 µM was 3%.

**Q.** How did the inhibition at 1 µM [1] turn out when Cc1ccc2c(c1)c1c(n2CC(O)c2cccnc2)CCN(C)CC1 (centres unmarked) [Compound No. 19, 2-(2,3,4,5-tetrahydro-3,9-dimethylazepino[4,5-b]indol-6(1H)-yl)-1-(pyridin-3-yl)ethanol] was run?
**A.** The inhibition at 1 µM was 42%.

**Q.** And the inhibition at 1 µM [2]?
**A.** The inhibition at 1 µM was 54%.

**Q.** And the inhibition at 1 µM [3]?
**A.** Its inhibition at 1 µM is 69%.

**Q.** And the inhibition at 1 µM [4]?
**A.** The inhibition at 1 µM was 12%.

**Q.** With Cc1ccc2c(c1)c1c(n2/C=C/c2ccccc2)CCN(C)CC1 [Compound No. 229, (E)-3,9-dimethyl-6-styryl-1,2,3,4,5,6-hexahydroazepino[4,5-b]indole] as the compound, how does the inhibition at 1 µM [1] read?
**A.** Its inhibition at 1 µM is 94%.

**Q.** What about the inhibition at 1 µM [2] of the same compound?
**A.** The inhibition at 1 µM was 97%.

**Q.** And the inhibition at 1 µM [3]?
**A.** The inhibition at 1 µM was 100%.

**Q.** What about the inhibition at 1 µM [4] of the same compound?
**A.** Its inhibition at 1 µM is 68%.

**Q.** What does the source list for Cc1ccc2c(c1)c1c(n2CCc2ccc(Cl)cc2)CCN(C)CC1 [Compound No. 28, 6-(4-chlorophenethyl)-1,2,3,4,5,6-hexahydro-3,9-dimethylazepino[4,5-b]indole]?
**A.** inhibition at 1 µM [1]: 97%; inhibition at 1 µM [2]: 94%; inhibition at 1 µM [3]: 96%; inhibition at 1 µM [4]: 67%
